Consider 29 molecules from patent US20240270741A1 (Cogent Biosciences, Inc., priority 2023, published 2024).

This assay deals with FGFR2 (Homo sapiens, UniProt P21802). In words: FGFR wild type enzyme assay (HTRF KinEASE-TK), FGFR2. The following applies: Enz FGFR2 (nM), FGFR2 wild type enzyme assay.
Sequence of FGFR2 (P21802 399-821 limits assumed): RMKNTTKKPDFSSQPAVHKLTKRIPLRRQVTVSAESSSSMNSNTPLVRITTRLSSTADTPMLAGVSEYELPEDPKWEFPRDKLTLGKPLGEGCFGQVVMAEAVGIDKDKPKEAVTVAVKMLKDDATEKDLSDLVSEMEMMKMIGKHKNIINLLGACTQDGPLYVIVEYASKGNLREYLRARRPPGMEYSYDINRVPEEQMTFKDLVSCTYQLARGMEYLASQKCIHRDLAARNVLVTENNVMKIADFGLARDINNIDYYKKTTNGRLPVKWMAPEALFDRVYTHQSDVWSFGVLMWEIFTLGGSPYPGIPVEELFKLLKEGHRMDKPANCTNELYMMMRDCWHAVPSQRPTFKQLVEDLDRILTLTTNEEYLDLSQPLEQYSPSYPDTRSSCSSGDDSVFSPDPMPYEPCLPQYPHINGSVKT
Take `CC(=O)N1CCC(n2ncc(-c3cc(Sc4nc(C)c(F)cc4F)c4c(C#N)cnn4c3)c2C)CC1` [Example 399, 6-(1-(1-acetylpiperidin-4-yl)-5-methyl-1H-pyrazol-4-yl)-4-((3,5-difluoro-6-methylpyridin-2-yl)thio)pyrazolo[1,5-a]pyridine-3-carbonitrile]: the half-maximal inhibitory concentration (IC50) came out at 2 nM.

`CC(=O)N1CCC(n2cc(-c3cc(Sc4ccccc4C#N)c4c(C#N)cnn4c3)c(C)n2)CC1` [Example 400, 6-(1-(1-acetylpiperidin-4-yl)-3-methyl-1H-pyrazol-4-yl)-4-((2-cyanophenyl)thio)pyrazolo [1,5-a]pyridine-3-carbonitrile] returned an IC50 of 3 nM.

As to `CC(=O)N1CCC(n2cc(-c3cc(Sc4ncccc4F)c4c(C#N)cnn4c3)c(C)n2)CC1` [Example 401, 6-(1-(1-acetylpiperidin-4-yl)-3-methyl-1H-pyrazol-4-yl)-4-((3-fluoropyridin-2-yl)thio)pyrazolo[1,5-a]pyridine-3-carbonitrile], the IC50 came to 7 nM.

With `Cc1c(-c2cc(Sc3ccc(F)cc3C#N)c3c(C#N)cnn3c2)cnn1[C@H]1CCCN(S(C)(=O)=O)C1` [Example 402, (S)-4-((2-cyano-4-fluorophenyl)thio)-6-(5-methyl-1-(1-(methylsulfonyl)piperidin-3-yl)-1H-pyrazol-4-yl)pyrazolo[1,5-a]pyridine-3-carbonitrile], it took 2 nM to reach half-maximal inhibition (IC50).

Regarding `Cc1c(-c2cc(Sc3ccc(F)cc3C#N)c3c(C#N)cnn3c2)cnn1C1CCN(S(C)(=O)=O)CC1` [Example 403, 4-((2-cyano-4-fluorophenyl)thio)-6-(5-methyl-1-(1-(methylsulfonyl)piperidin-4-yl)-1H-pyrazol-4-yl)pyrazolo[1,5-a]pyridine-3-carbonitrile], the IC50 is 2 nM.

On to `N#Cc1cnn2cc(-c3cn([C@H]4CCCNC4)nn3)cc(Sc3ncccc3F)c12` [Example 404, (S)-4-((3-fluoropyridin-2-yl)thio)-6-(1-(piperidin-3-yl)-1H-1,2,3-triazol-4-yl)pyrazolo[1,5-a]pyridine-3-carbonitrile], for which it took 15 nM to reach half-maximal inhibition (IC50).

Regarding `N#Cc1cc(F)ccc1Sc1cc(-c2ccc(N3CCOCC3)nc2)cn2ncc(C#N)c12` [Example 405, 4-((2-cyano-4-fluorophenyl)thio)-6-(6-morpholinopyridin-3-yl)pyrazolo[1,5-a]pyridine-3-carbonitrile], the IC50 came out at 2 nM.

`Cc1c(-c2cc(Sc3ccccc3C#N)c3c(C#N)cnn3c2)cnn1C1CCN(C(=O)N(C)C)CC1` [Example 406, 4-(4-(3-cyano-4-((2-cyanophenyl)thio)pyrazolo [1,5-a]pyridin-6-yl)-5-methyl-1H-pyrazol-1-yl)-N,N-dimethylpiperidine-1-carboxamide] returned a half-maximal inhibitory concentration (IC50) of 1 nM.

Take `CN(c1ccc(-c2cc(Sc3ccccc3C#N)c3c(C#N)cnn3c2)cn1)C1CCCNC1` (centres unmarked) [Example 407, 4-(2-cyanophenyl)sulfanyl-6-[6-[methyl(3-piperidyl)amino]-3-pyridyl]pyrazolo[1,5-a]pyridine-3-carbonitrile]: the IC50 amounted to 0.2 nM.

`CC(=O)N1CCC(n2ncc(-c3cc(Sc4nc(C)c(Cl)cc4F)c4c(C#N)cnn4c3)c2C)CC1` [Example 408, 6-(1-(1-acetylpiperidin-4-yl)-5-methyl-1H-pyrazol-4-yl)-4-((5-chloro-3-fluoro-6-methylpyridin-2-yl)thio)pyrazolo[1,5-a]pyridine-3-carbonitrile]: the midpoint of inhibition, the IC50, lay at 2 nM.

As for `CC(=O)N1[C@@H]2CC[C@H]1C[C@H](n1cc(-c3cc(Sc4ccccc4C#N)c4c(C#N)cnn4c3)c(C)n1)C2` [Example 409, 6-(1-((1R,3s,5S)-8-acetyl-8-azabicyclo[3.2.1]octan-3-yl)-3-methyl-1H-pyrazol-4-yl)-4-((2-cyanophenyl)thio)pyrazolo [1,5-a]pyridine-3-carbonitrile], the IC50 stood at 5 nM.

On to `CC(=O)N1[C@@H]2CC[C@H]1C[C@H](n1cc(-c3cc(Sc4ccc(F)cc4C#N)c4c(C#N)cnn4c3)c(C)n1)C2` [Example 410, 6-(1-((1R,3s,5S)-8-acetyl-8-azabicyclo[3.2.1]octan-3-yl)-3-methyl-1H-pyrazol-4-yl)-4-((2-cyano-4-fluorophenyl)thio)pyrazolo [1,5-a]pyridine-3-carbonitrile], for which it took 26 nM to reach half-maximal inhibition (IC50).

`CC(=O)N1CC[C@H](n2ncc(-c3cc(Sc4ccc(F)cc4C#N)c4c(C#N)cnn4c3)c2C)C[C@@H]1C` [Example 411, 6-(1-((2S,4S)-1-acetyl-2-methylpiperidin-4-yl)-5-methyl-1H-pyrazol-4-yl)-4-((2-cyano-4-fluorophenyl)thio)pyrazolo [1,5-a]pyridine-3-carbonitrile] had a 50% inhibitory concentration (IC50) of 2 nM.

`CC(=O)N1CC[C@@H](n2cc(-c3cc(Sc4ccc(F)cc4C#N)c4c(C#N)cnn4c3)cn2)C[C@H]1C` [Example 412, 6-(1-((2R,4R)-1-acetyl-2-methylpiperidin-4-yl)-1H-pyrazol-4-yl)-4-((2-cyano-4-fluorophenyl)thio)pyrazolo [1,5-a]pyridine-3-carbonitrile] registered an IC50 of 1 nM.

`Cc1nn([C@H]2CCCNC2)cc1-c1cc(Sc2ccccc2C#N)c2c(C#N)cnn2c1` [Example 413, (S)-4-((2-cyanophenyl)thio)-6-(3-methyl-1-(piperidin-3-yl)-1H-pyrazol-4-yl)pyrazolo[1,5-a]pyridine-3-carbonitrile]: inhibition was half-maximal at 3 nM (IC50).

Regarding `Cc1nn([C@H]2CCCNC2)cc1-c1cc(Sc2ccc(F)cc2C#N)c2c(C#N)cnn2c1` [Example 414, (S)-4-((2-cyano-4-fluorophenyl)thio)-6-(3-methyl-1-(piperidin-3-yl)-1H-pyrazol-4-yl)pyrazolo[1,5-a]pyridine-3-carbonitrile], half-maximal inhibition (IC50) required 7 nM.

Turning to `Cc1nn([C@H]2CCCNC2)cc1-c1cc(Sc2ncccc2F)c2c(C#N)cnn2c1` [Example 415, (S)-4-((3-fluoropyridin-2-yl)thio)-6-(3-methyl-1-(piperidin-3-yl)-1H-pyrazol-4-yl)pyrazolo[1,5-a]pyridine-3-carbonitrile], the half-inhibitory concentration (IC50) was determined as 7 nM.

Consider `Cc1nn([C@H]2CCCN(C(=O)CO)C2)cc1-c1cc(Sc2ncccc2F)c2c(C#N)cnn2c1` [Example 420, (S)-4-((3-fluoropyridin-2-yl)thio)-6-(1-(1-(2-hydroxyacetyl)piperidin-3-yl)-3-methyl-1H-pyrazol-4-yl)pyrazolo[1,5-a]pyridine-3-carbonitrile], for which the IC50 is 4 nM.

In turn, `N#Cc1cnn2cc(-c3cnn([C@H]4CCNC4)c3)cc(Sc3ncccc3F)c12` [Example 421, (S)-4-((3-fluorop;yridin-2-yl)thio)-6-(1-(pyrrolidin-3-yl)-1H-pyrazol-4-yl)pyrazolo[1,5-a]pyridine-3-carbonitrile] came in with an IC50 of 5 nM.

On to `CC(=O)N1CCC(n2ncc(-c3cc(Sc4ncccc4F)c4c(C#N)cnn4c3)c2CO)CC1` [Example 423, 6-(1-(1-acetylpiperidin-4-yl)-5-(hydroxymethyl)-1H-pyrazol-4-yl)-4-((3-fluoropyridin-2-yl)thio)pyrazolo[1,5-a]pyridine-3-carbonitrile], for which half-maximal inhibition (IC50) was put at 259 nM.

As for `COCc1c(-c2cc(Sc3ccccc3C#N)c3c(C#N)cnn3c2)cnn1C1CCN(C)CC1` [Example 424, 4-((2-cyanophenyl)thio)-6-(5-(methoxymethyl)-1-(1-methylpiperidin-4-yl)-1H-pyrazol-4-yl)pyrazolo[1,5-a]pyridine-3-carbonitrile], the IC50 is 46 nM.

The molecule `CC(=O)N1CCC[C@H](n2cc(-c3cc(Sc4ccc(F)cc4C#N)c4c(C#N)cnn4c3)c(C)n2)C1` [Example 425, (S)-6-(1-(1-acetylpiperidin-3-yl)-3-methyl-1H-pyrazol-4-yl)-4-((2-cyano-4-fluorophenyl)thio)pyrazolo [1,5-a]pyridine-3-carbonitrile] gave a 50% inhibitory concentration (IC50) of 6 nM.

`Cc1nn([C@H]2CCCN(C(=O)CO)C2)cc1-c1cc(Sc2ccc(F)cc2C#N)c2c(C#N)cnn2c1` [Example 426, (S)-4-((2-cyano-4-fluorophenyl)thio)-6-(1-(1-(2-hydroxyacetyl)piperidin-3-yl)-3-methyl-1H-pyrazol-4-yl)pyrazolo[1,5-a]pyridine-3-carbonitrile] gave an IC50 of 4 nM.

Regarding `N#Cc1ccccc1Sc1cc(-c2cnn([C@H]3CCNC3)c2)cn2ncc(C#N)c12` [Example 427, (S)-4-((2-cyanophenyl)thio)-6-(1-(pyrrolidin-3-yl)-1H-pyrazol-4-yl)pyrazolo[1,5-a]pyridine-3-carbonitrile], 0.4 nM corresponded to half-maximal inhibition (IC50).

`CC(=O)N1CCC(n2cc(-c3cc(Sc4ncccc4F)c4c(C#N)cnn4c3)cn2)CC1` [Example 428, 6-(1-(1-acetylpiperidin-4-yl)-1H-pyrazol-4-yl)-4-((3-fluoropyridin-2-yl)thio)pyrazolo[1,5-a]pyridine-3-carbonitrile] registered an IC50 of 1 nM.

As for `CC(=O)N1CCC(n2cc(-c3cc(Sc4ccc(F)cc4C#N)c4c(C#N)cnn4c3)cn2)CC1` [Example 429, 6-(1-(1-acetylpiperidin-4-yl)-1H-pyrazol-4-yl)-4-((2-cyano-4-fluorophenyl)thio)pyrazolo [1,5-a]pyridine-3-carbonitrile], half-maximal inhibition (IC50) required 1 nM.

For the molecule `CN1CCC(n2cc(-c3cc(Sc4ncccc4F)c4c(C#N)cnn4c3)nn2)CC1` [Example 430, 4-((3-fluoropyridin-2-yl)thio)-6-(1-(1-methylpiperidin-4-yl)-1H-1,2,3-triazol-4-yl)pyrazolo[1,5-a]pyridine-3-carbonitrile], the IC50 worked out at 10 nM.

As to `CC(=O)N1CCC[C@H](n2ncc(-c3cc(Sc4nc(C)c(F)cc4F)c4c(C#N)cnn4c3)c2C)C1` [Example 431, (S)-6-(1-(1-acetylpiperidin-3-yl)-5-methyl-1H-pyrazol-4-yl)-4-((3,5-difluoro-6-methylpyridin-2-yl)thio)pyrazolo[1,5-a]pyridine-3-carbonitrile], the IC50 is 2 nM.

`CC(=O)N1CCC(n2cc(-c3cc(Sc4ccc(F)cc4C#N)c4c(C#N)cnn4c3)c(C)n2)CC1` [Example 432, 6-(1-(1-acetylpiperidin-4-yl)-3-methyl-1H-pyrazol-4-yl)-4-((2-cyano-4-fluorophenyl)thio)pyrazolo [1,5-a]pyridine-3-carbonitrile]: the IC50 came out at 3 nM.
